{
  "source": "patent US20070037800A1",
  "about": "“Method of treating neurological disorders using clotrimazole and derivatives thereof” (EnVivo Pharmaceuticals, Inc., priority 2005, published 2007)",
  "key": {"[1]": {"tested_on": "HD model flies (elav-GAL4 UAS-htt128Q)", "test": "Assay of locomotor activity (climbing speed) using the transgenic Drosophila HD model", "assay_type": "in vivo", "parameters": "Early Speed Effect Size, Summary / Late Speed Effect Size, Summary / Early Speed Effect Size / Late Speed Effect Size / Early Speed Adj Value / Late Speed Adj Value / Early Speed Effect Size, combined campaigns / Late Speed Effect Size, combined campaigns: unit not given here", "conditions": "for Early Speed Effect Size, combined campaigns / Early Speed Percent TSA, combined campaigns / Late Speed Effect Size, combined campaigns / Late Speed Percent TSA, combined campaigns: drawing 84, drawing 89", "method": "Female “activator” or “driver” flies were engineered to contain the neuronal specific drivers elav-GAL4 or nirvana-GAL4 in a heat shock-hid Y (phs-hidY or HS-hid+ on Y chomosome) background (Starz-Gaiano et al., 2001). The hid gene is a pro-apoptotic gene, which is expressed in this line by a heat inducible promoter. These flies can be heat shocked in bottles twice over 2 days for 2 hours to kill male larvae and thereby produce massive numbers of elav-GAL4 or nirvana-GAL4 virgin females.\nFor the mass production of males (either UAS-htt128Q[F27B]/UAS-htt128Q[F27B], the disease transgenes were moved into lines that contain an attached X-chromosome with the same phs-hid element (X^XPhs-hidY) used above. In this scheme the hid gene is present only in female flies and therefore is used to produce large numbers of male flies by heat shock. The massive collection of virgin female elav-GAL4 flies are crossed with the massive collection of males that contain the silent disease-transgene. Their progeny, the F1 generation, are the “assay flies” (e.g., elav-GAL4UAS-htt128Q[F27B]). These assay flies are robotically distributed into drugged assay vials.\nThe HD Drosophila model express exons 1 to 4 of the human huntingtin gene with 128Q repeats in exon 1. The construct was cloned into the Drosophila transformation vector, pUAST. These were then crossed to GAL4 driver lines that direct expression either to the eye (GMR-GAL4 promoter) or to neurons (elav-GAL4 promoter). […] Progressive degeneration of the photoreceptors was observed after several days of adult life. The properties of the HD128Q flies were consistent with those reported by others for two other strains in which exon-1 containing expanded repeats was expressed in the eye (Jackson et al., 1998; Steffan et al., 2001—US20040142859). To test the effects on motor function of the HD mutation, HD128Q lines were examined in which the transgene was expressed in all neurons. Motor function was assayed by tapping flies in a vial to the bottom and measuring the number of flies that are able to climb to a specified height within a specific length of time. When tapped to the bottom of a vial, wild-type flies rapidly climb to the top, where most of them remain. […] The decline in motor performance was progressive, leading to early death. […] The HD128Q model thus has a functional deficit that in its phenotypic and neuropathological characteristics appears to be related to that seen in the human disease. Moreover, as the deficit is quantifiable and reproducible, it is suitable for automated high-throughput screening.\nStandard environmental conditions were followed to establish that different metrics detect differences between disease and control flies. A comparison of compound-treated HD flies and untreated HD flies was also included. The positive control compound tested was the Histone Deacetylase (HDAC) inhibitor Trichostatin-A (TSA).\nIn an assay run (typically corresponding to one day of an entire multi-day assay) the following process was followed. Each tube was dropped onto a surface, causing the flies to fall to the bottom of the tube and be subjected to impact shock stimulation. Their immediate negative geotaxis response to that event was thereafter captured in a 7.5 second movie. For each tube, this step was repeated five times, giving a total of five repeat videos per tube and run. The raw data for each video were analyzed and trajectories following the movements of individual flies in a tube were generated. The method for analyzing fly trajectories is described in published U.S. Patent Application 2004/0076318A1, which is hereby incorporated by reference in its entirety. The trajectories consisted of a list of x- and y-coordinates mapping out the positions of all the flies in the video, as well as measurements of size, orientation, length and width of the flies, with one list entry for every frame from when the fly started moving in one frame until it stopped in another. […]"}, "[2]": {"tested_on": "KA-induced lesion in C57B1/6N mice", "conditions": "intra-striatal KA, Cosi et al., 2004; cited from earlier work"}, "[3]": {"conditions": "food conc 100, days 8 to 10, vs DMSO carrier, single campaigns"}, "[4]": {"conditions": "food conc 200, campaign drawing 91, day range not given, late by column position"}, "[5]": {"conditions": "conc 100, days 1 to 7, campaigns drawing 83"}, "[6]": {"conditions": "conc 100, days 8 to 10, campaigns drawing 83"}, "[7]": {"conditions": "conc 300, days 1 to 7, campaigns drawing 80, drawing 83, drawing 85, drawing 88"}, "[8]": {"conditions": "conc 300, days 8 to 10, campaigns drawing 80, drawing 83, drawing 85, drawing 88"}, "[9]": {"conditions": "food conc 100 (unit not printed; b38: μM), days 1 to 7, single campaigns"}, "[10]": {"conditions": "food conc 100, days 8 to 10, single campaigns"}, "[11]": {"conditions": "conc 100, days 1 to 7, campaigns drawing 80, drawing 83, drawing 88"}, "[12]": {"conditions": "conc 100, days 8 to 10, campaigns drawing 80, drawing 83, drawing 88"}},
  "note": "“And” between values parts separate entries of the source, which are not always exact repeats. Identical values can stand only once.",
  "data": [
    {"smiles": "Fc1ccc(C(c2ccccc2)(c2ccc(F)cc2)n2ccnc2)cc1", "values": [
      {"measurement": "Early Speed Effect Size", "setting": "[1]; food conc 50 (unit not printed; b38: μM), days 1 to 7, vs DMSO carrier, single campaigns", "value": 0.31},
      {"measurement": "Early Speed Percent TSA", "setting": "[1]; food conc 50, days 1 to 7, effect size as percentage of positive control TSA, single campaigns", "value": 16.8, "unit": "%"},
      {"measurement": "Late Speed Percent TSA", "setting": "[1]; food conc 50, days 8 to 10, effect size as percentage of TSA, single campaigns", "value": 12.5, "unit": "%"},
      {"measurement": "Late Speed Effect Size", "setting": "[1]; food conc 50, days 8 to 10, vs DMSO carrier, single campaigns", "value": 0.33},
      {"measurement": "Early Speed Percent TSA", "setting": "[1]; food conc 100, days 1 to 7, effect size as percentage of TSA, single campaigns", "value": 56.8, "unit": "%"},
      {"measurement": "Early Speed Effect Size", "setting": "[1]; food conc 100, days 1 to 7, vs DMSO carrier, single campaigns", "value": 1.04},
      {"measurement": "Late Speed Percent TSA", "setting": "[1]; food conc 100, days 8 to 10, effect size as percentage of TSA, single campaigns", "value": 49.9, "unit": "%"},
      {"measurement": "Late Speed Effect Size", "setting": "[1]; [3]", "value": 1.32},
      {"measurement": "Early Speed Effect Size", "setting": "[1]; food conc 200 (unit not given), campaign drawing 91, day range not given, early by column position", "value": 1.23},
      {"measurement": "Early Speed Percent TSA", "setting": "[1]; food conc 200, campaign drawing 91, day range not given, early by column position", "value": 67.2, "unit": "%"},
      {"measurement": "Late Speed Effect Size", "setting": "[1]; [4]", "value": 0.8},
      {"measurement": "Late Speed Percent TSA", "setting": "[1]; [4]", "value": 30.2, "unit": "%"}
    ]},
    {"smiles": "FC(F)(F)c1cccc(C(c2ccccc2)(c2ccccc2)n2ccnc2)c1", "note": "[1-(3-(TRIFLUOROMETHYL)TRITYL)IMIDAZOLE, 1-(3-(trifluoromethyl)trityl)imidazole]", "values": [
      {"measurement": "Early Speed Effect Size, combined campaigns", "setting": "[1]; [5]", "value": "−0.159"},
      {"measurement": "Early Speed Percent TSA, combined campaigns", "setting": "[1]; [5]", "value": "−4.3", "unit": "%"},
      {"measurement": "Late Speed Effect Size, combined campaigns", "setting": "[1]; [6]", "value": 0.344},
      {"measurement": "Late Speed Percent TSA, combined campaigns", "setting": "[1]; [6]", "value": 7.6, "unit": "%"},
      {"measurement": "Early Speed Effect Size, combined campaigns", "setting": "[1]; [7]", "value": 1.003},
      {"measurement": "Early Speed Percent TSA, combined campaigns", "setting": "[1]; [7]", "value": 45.6, "unit": "%"},
      {"measurement": "Late Speed Effect Size, combined campaigns", "setting": "[1]; [8]", "value": 1.798},
      {"measurement": "Late Speed Percent TSA, combined campaigns", "setting": "[1]; [8]", "value": 68.2, "unit": "%"},
      {"measurement": "Early Speed Adj Value", "setting": "[1]; [9]", "value": "10.37 and 10.38 and 10.47"},
      {"measurement": "Late Speed Adj Value", "setting": "[1]; [10]", "value": "5.094 and 5.776 and 5.811"},
      {"measurement": "Early Speed Adj Value", "setting": "[1]; food conc 300 (unit not given), days 1 to 7, single campaigns", "value": "11.11 and 10.33 (2×) and 10.9 and 11.1 and 11.02"},
      {"measurement": "Late Speed Adj Value", "setting": "[1]; food conc 300, days 8 to 10, single campaigns", "value": "7.096 and 5.024 and 5.921 and 7.137 and 6.976 and 6.601"},
      {"measurement": "Late Speed Effect Size", "setting": "[1]; food conc 300, days 8 to 10, vs DMSO carrier, single campaigns", "value": "2.88 and 1.62 and 1.96"}
    ]},
    {"smiles": "Cl.FC(F)(F)c1cccc(C(c2ccccc2)(c2ccccc2)n2ccnc2)c1", "note": "[1-(3-(trifluoromethyl)trityl)imidazole hydrochloride]", "values": [
      {"measurement": "Effect in Drosophila model of HD", "setting": "[1]; vs carrier controls, metrics early speed (days 1-7) and late speed (days 8-10)", "value": "had therapeutic effect"}
    ]},
    {"smiles": "c1ccc(C(c2ccccc2)(c2ccccc2)n2ccnc2)cc1", "note": "[1-triphenylmethyl imidazole]", "values": [
      {"measurement": "Early Speed Effect Size, combined campaigns", "setting": "[1]; [11]", "value": 0.186},
      {"measurement": "Early Speed Percent TSA, combined campaigns", "setting": "[1]; [11]", "value": 9.6, "unit": "%"},
      {"measurement": "Late Speed Effect Size, combined campaigns", "setting": "[1]; [12]", "value": 0.179},
      {"measurement": "Late Speed Percent TSA, combined campaigns", "setting": "[1]; [12]", "value": 6.9, "unit": "%"},
      {"measurement": "Early Speed Adj Value", "setting": "[1]; [9]", "value": "10.62 and 9.998 and 10.71 and 11.18 and 10.51 and 10.31"},
      {"measurement": "Early Speed Adj Value", "setting": "[1]; food conc 100 (unit not printed; b38: μM), days 1 to 7, single campaigns, listed as 1-(triphenylmethyl)imidazole", "value": "10.62 and 10.71"},
      {"measurement": "Late Speed Adj Value", "setting": "[1]; [10]", "value": "5.547 and 5.811 and 4.932 and 5.407 and 5.092 and 5.877"},
      {"measurement": "Late Speed Adj Value", "setting": "[1]; food conc 100, days 8 to 10, single campaigns, listed as 1-(triphenylmethyl)imidazole", "value": "5.81 and 5.41"},
      {"measurement": "Late Speed Effect Size", "setting": "[1]; [3]", "value": "0.86 and 0.62"}
    ]},
    {"smiles": "NC(=O)c1ccccc1", "note": "[Benzamide]", "values": [
      {"measurement": "KA-induced decreases in striatal levels of NAD+ and ATP", "setting": "[2]", "value": "partially prevented"},
      {"measurement": "KA-induced lesions and astrogliosis", "setting": "[2]", "value": "partially prevented"}
    ]},
    {"smiles": "Clc1ccccc1C(c1ccccc1)(c1ccccc1)N1CCOCC1", "note": "[Example 1(f), 4-[(2-Chlorophenyl)-diphenylmethyl]-morpholine]", "values": [
      {"measurement": "melting point", "value": 205, "unit": "°C"}
    ]},
    {"smiles": "FC(F)(F)c1cccc(C(c2ccccc2)(c2ccccc2)N2CCOCC2)c1", "note": "[Example 1(g), 4-[(3-Trifluoromethylphenyl)-diphenylmethyl]-morpholine]", "values": [
      {"measurement": "melting point", "value": "158 to 160", "unit": "°C"}
    ]}
  ]
}
